Data set [1] concerns the target T1, ferrous heme-hHO-1 (Homo sapiens, UniProt P09601).
T1 sequence (P09601 1-265 limits assumed): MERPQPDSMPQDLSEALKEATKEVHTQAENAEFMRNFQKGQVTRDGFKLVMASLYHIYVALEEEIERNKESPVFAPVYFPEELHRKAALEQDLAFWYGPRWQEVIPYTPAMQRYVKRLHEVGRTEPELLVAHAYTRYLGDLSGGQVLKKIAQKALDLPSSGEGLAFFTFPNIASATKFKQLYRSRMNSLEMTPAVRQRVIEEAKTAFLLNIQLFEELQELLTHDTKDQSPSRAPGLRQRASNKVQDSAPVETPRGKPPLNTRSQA
The note with it: cited from earlier work.

For a further data set, the system named is verdoheme-HO-1 complex. The conditions noted are these: in the presence of reductant; cited from earlier work.
Another data set has as its target T2, hHO-1 (Homo sapiens, UniProt P09601).
T2 sequence (P09601 1-265 limits assumed): T1 sequence (P09601 1-265 limits assumed)
In words: biochemical.

Data set [2] deals with HO. The conditions noted are these: cited from earlier work.
For data set [3], the target named is HO. The note with it: cited from earlier work. This is another data set of the same source.
For another data set, the target named is CaHmx1 (Candida albicans, UniProt Q5AB97). The class given is binding. The note with it: read-out: estimate of the KD; ferric CaHmx1; no full saturation up to 7 mM.
Another data set concerns the target T3, hHO-2 (Homo sapiens, UniProt P30519).
T3 sequence (P30519 2-295 limits assumed): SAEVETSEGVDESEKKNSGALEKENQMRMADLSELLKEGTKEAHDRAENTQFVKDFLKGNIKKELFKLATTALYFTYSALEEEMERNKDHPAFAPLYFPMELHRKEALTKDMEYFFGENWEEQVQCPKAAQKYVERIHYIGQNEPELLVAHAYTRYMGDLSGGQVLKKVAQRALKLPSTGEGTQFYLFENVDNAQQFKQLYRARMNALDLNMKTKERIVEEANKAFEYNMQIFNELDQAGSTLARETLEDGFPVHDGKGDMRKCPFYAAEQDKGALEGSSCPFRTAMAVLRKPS
Kind of data set: biochemical.

For data set [4], the target named is T1, ferrous heme-hHO-1. Kind of data set: biochemical. It counts as binding.
The next data set addresses T4, ferric verdoheme-hHO-1 (Homo sapiens, UniProt P09601).
T4 sequence (P09601 1-265 limits assumed): T1 sequence (P09601 1-265 limits assumed)
Kind of data set: biochemical. It counts as binding.

For data set [5], the target named is T5, heme-hHO-1 (Homo sapiens, UniProt P09601).
T5 sequence (P09601 1-265 limits assumed): T1 sequence (P09601 1-265 limits assumed)
The class given is binding. The conditions noted are these: ferric heme-hHO-1.

A short description of data set [6]: Solubility in aqueous solutions. The class given is physicochemical.
The target of data set [7] is T5, heme-hHO-1. Kind of data set: biochemical.

≈ marks a conversion by molar mass, not a printed value. Read-outs that look alike come from different tables or passages of the source.

As a reminder, the Kd is the free concentration of one partner at which half of the binding sites on the other are occupied at equilibrium, for simple one-to-one binding. Consider `O=O` [O2], for which, at ferrous heme-hHO-1 [1], the Kd was 0.04 µM, the association rate constant is 6.9e+06 M⁻¹ s⁻¹ and the dissociation rate is 0.25 s⁻¹. Moreover, the “estimated rate constant of reaction with O2” value in the data set on verdoheme-HO-1 complex was 250 M⁻¹ s⁻¹.
As for `[C-]#[O+]` [CO, carbon monoxide], on ferrous heme-hHO-1 [1], the Kd was 0.01 µM, the association rate constant is 900000 M⁻¹ s⁻¹ and the dissociation rate is 0.009 s⁻¹.
In general, Km refers to the substrate concentration at which the rate is half of its maximum. In the case of iron protoporphyrin IX [heme], the Km on hHO-1 (read-out: Km for heme, global fit to uncompetitive inhibition) was 0.005 ± 0.001 mM. In addition, the Kd on HO [2] is 0.8 ± 0.2 µM.
By Ki is commonly meant the equilibrium dissociation constant of an inhibitor or competing ligand from its target. Regarding `C=Cc1c2[n-]c(c1C)/C=c1\[n-]/c(c(C)c1C=C)=C\c1[n-]c(c(CCC(=O)O)c1C)C=c1[n-]/c(c(C)c1CCC(=O)O)=C\2.[Sn+4]` [Sn-heme], the Ki at HO [3] was 0.011 µM.
Broadly, the IC50 is the concentration that inhibits the measured activity by half. Lower therefore signals greater potency. For the compound `[C-]#[N+]C(C)C` [isopropyl isocyanide], the Kd is 3800 µM at CaHmx1 and 440 ± 75 µM at ferric verdoheme-hHO-1 (ferric verdoheme-hHO-1 generated with one equivalent H2O2). Also, the 50% inhibitory concentration (IC50) against hHO-1 stood at 0.72 ± 0.08 µM; against hHO-2 it was 1.17 ± 0.06 µM. At ferrous heme-hHO-1 [4] (ferrous heme-hHO-1, 20 °C, anaerobic), the “association rate constant (kon)” value amounted to 1.3e+06 M⁻¹ s⁻¹.
As a reminder, the solubility is how much of the substance goes into solution per volume. A low value points to little dissolved substance. One may read the koff as the rate constant with which the complex falls apart. `[C-]#[N+]CCCC` [n-butyl isocyanide]: the “fold higher affinity than isopropyl isocyanide” value at heme-hHO-1 [5] came to 9 fold. The IC50 on hHO-1 is 0.25 ± 0.01 µM; on hHO-2, 0.34 ± 0.02 µM; against heme-hHO-1 [7] it was approximately 45 µM. This compound displayed a solubility in data set [6] of 6 mM (≈ 499 µg/mL). Moreover, the Kd on ferrous heme-hHO-1 [4] came out at 0.12 µM; on ferric verdoheme-hHO-1, 17 ± 3 µM. In addition, the koff on ferrous heme-hHO-1 [4] (read-out: dissociation rate (koff)) is 0.52 s⁻¹. Also, the “fold higher affinity than ferric heme-hHO-1” value on ferric verdoheme-hHO-1 (ferric verdoheme-hHO-1 versus ferric heme-hHO-1) is given as 2 fold.
